# According to patent US20210251999A1, “Treatment of Conditions Associated With Decreased Folate in Cerebral Spinal Fluid” (priority 2011, published 2021):
# Tests used:
# Format in all cases: in vivo, human
# [1] = Cerebrospinal folate level in a patient with cerebrospinal folate deficiency (case report, Example 2); details: patient Example 2; folinic acid 5 mg twice per day; within approximately four months; rose from 32 L (preferred range 40-128)
# Description: Example 1 was tested for cerebrospinal folate deficiency approximately four months after Example 2's testing. […] Studies have shown that the earlier the anemias associated with cerebrospinal folate deficiency are addressed, the better the adversely impacted individual can overcome more long-term effects of the associated folate deficiency.
# After Example 2's diagnosis, Example 2 was placed on 5-methyltetrahydrofolate in the form of folinic acid (5 mg twice per day).
# [2] = Clinical improvement of a patient with cerebrospinal folate deficiency (case report, Example 2); details: patient Example 2; after 5-methyltetrahydrofolate treatment (folinic acid 5 mg twice per day)
# Description: After Example 2's diagnosis, Example 2 was placed on 5-methyltetrahydrofolate in the form of folinic acid (5 mg twice per day). Within approximately four months, Example 2's cerebrospinal folate levels rose from 32 L (preferred range 40-128) to approximately 88 (above the midpoint of the range). […] Thus, reduced folates are critical.
# [3] = Hematological response (reticulocytes) in a hypothyroid neonate after vitamin B12 supplementation (case report, Example 1); details: patient Example 1 (neonate); additional nutritional supplement containing 2 mcg of vitamin B12
# Description: In another example: a patient (later referred to as Example 1, and also a twin of Example 2) suffered from clinical signs of cerebrospinal folate deficiency at birth. Example 1 received infant milk formula that contained vitamin B12. […] It is noted that the multivitamin nutritional supplement was Poly-Vi-Sol. Example 2 received a version of Poly-Vi-Sol that was fortified with iron, but that contained no vitamin B12. It is further noted that neither the version of Poly-Vi-Sol (without the iron fortification) nor the Poly-Vi-Sol (with iron fortification) contained any folate. Thus, the disclosed subject matter addresses the need for Poly-Vi-Sol, and other vitamin supplements that are given to neonates, infants and toddlers, to contain the methods and compositions described herein.
# Both Example 1 and Example 2 were treated for iron deficiencies with iron supplements. Example 1 and Example 2 received different nutritional supplementation with respect to vitamin B 12. Although Example 2 did receive the same infant milk formula that Example 1 received, which infant milk formula contained vitamin B 12, Example 2 received less of the infant milk formula than Example 1, and Example 2 received in lieu of the infant milk formula more of the breast milk from the hypothyroid […]. […]
Compound,cerebrospinal folate levels [1],"physical, behavioral and social skills [2]",hematological response: reticulocytes [3]
"Nc1nc2c(c(=O)[nH]1)N(C=O)C(CNc1ccc(C(=O)N[C@@H](CCC(=O)O)C(=O)O)cc1)CN2 (stereo partly drawn) [folinic acid, 6(R,S)-5-formyltetrahydrofolate]",approximately 88,"showed improvement in physical, behavioral and social skills",
vitamin B 12,,,"increase in reticulocytes, moving from below normal to normal"
